Experimental data from patent US7521466B2, “Dipeptide phenyl ethers” (Bexel Pharmaceuticals, Inc., priority 2003, dated 2009).
Where a name gives a salt, the structure may show the parent alone.

Key:
db/db mice [1] = assay: Testing hyperglycemia in diabetic db/db mice; assay type: in vivo; conditions: for improvement of hyperglycemic conditions (blood glucose): db/db mice, 5, 10 and 50 mg/kg body weight orally, 15-21 days; for drop in blood glucose in treated animals compared to control groups: db/db mice, time course experiment following the oral dose (FIGS. 1A, 2A)
Method: The hypoglycemic effect of compounds A and B have been examined in spontaneous animal models of diabetes, leptin receptor knockout (db/db mice). The db/db mice have defective leptin receptor and show hyperglycemia with significant weight gain. The compound at a dose of 5, 10 (FIGS. 1C, 2C) and 50 mg/kg body weight (FIGS. lB, 2B) was given orally in these animals for a period of 15-21 days.

ob/ob mice [2] = assay: Lipid profile (TG, VLDL, cholesterol, HDL) in ob/ob mice; assay type: in vivo; conditions: 15-day treatment study
Excerpt: The leptin knock-out ob/ob mice is also considered a good model for insulin resistance and hyperlipidemia. Treatment of these animals with the compounds A and B lowered serum triglycerides (FIG. 4A) and VLDL (FIG. 4B) concentration by >50%.

ob/ob mice [3] = assay: Hyperglycemia and OGTT in diabetic obese ob/ob mice; assay type: in vivo; conditions: 50 mg/kg orally, 15-21 days
Method: The ob/ob mice is lacking leptin signaling and show hyperglycemia with significant weight gain. The compounds at a dose 50 mg/kg body weight were given orally in these animals for a period of 15-21 days.

ob/ob mice [4] = assay: Body weight gain, food and water intake in obese diabetic ob/ob mice; assay type: in vivo; conditions: 50 mg/kg orally, 15-21 days
Method: The ob/ob mice are lacking circulating leptin r and show hyperglycemia with significant weight gain. Both the compounds A and B at a dose of 50 mg/kg body weight were given orally in these animals for a period of 15-21 days.

3T3-L1 fibroblasts = assay: Adipogenesis (lipid accumulation, oil red O) in 3T3-L1 fibroblasts; assay type: cell-based; conditions: 0.1 and 10 uM, 7 days, oil red O staining
Method: Rosiglitazone and Compound A at 0.1 and 10 uM concentrations, were treated for 7 days and at the end lipid droplets were stained with oil red O and visualized under microscope.

[5] = tested on: 3T3-L1 differentiated adipocytes; assay: Basal glucose uptake in 3T3-L1 adipocytes; assay type: cell-based; conditions: 72 hr treatment, absence of insulin, control 0.1% DMSO
Method: Basal glucose uptake was carried out in 3T3-L1 differentiated adipocytes. After 72 hr of treatment they were challenged with either rosiglitazone or Compound A, then glucose uptake was carried out in absence of insulin. The control was 0.1% DMSO. Cytochalasin B was added in another set of wells to show the effect is receptor mediated.

TNFα = assay: LPS induced TNFα production in THP-1 monocyte cells; assay type: cell-based, Human; conditions: THP-1 cells, LPS 1 μg/ml, 24 hours, ELISA
Method: (§1) Human THP-1 monocyte cells were cultured and incubated with compounds A and B at different concentrations. Cells were then challenged with lipopolysaccharides (LPS) at a concentration of (1 μg/ml) for 24 hours. Cell supernatants were then analyzed for the presence of TNFα, IL-1β and IL-6 cytokines by antibody directed enzyme-linked immunoassay (FIGS. 8A, 8B, and 8C).

IL-1β = assay: LPS induced IL-1β production in THP-1 monocyte cells; assay type: cell-based, Human; conditions: THP-1 cells, LPS 1 μg/ml, 24 hours, ELISA
Method: as §1

IL-6 = assay: LPS induced IL-6 production in THP-1 monocyte cells; assay type: cell-based, Human; conditions: THP-1 cells, LPS 1 μg/ml, 24 hours, ELISA
Method: as §1

[6] = tested on: Human THP-1 monocyte cells; assay: Cell viability of THP-1 monocyte cells; assay type: cell-based; conditions: THP-1 cells, highest concentration of the compound
db/db mice [7] = assay: Body weight gain, food and water intake in db/db mice; assay type: in vivo; conditions: 50 mg/kg orally, 15-21 days
Method: The db/db mice have defective leptin receptor and show hyperglycemia with significant weight gain. The compound B at a dose of 50 mg/kg body weight was given orally in these animals for a period of 15-21 days.

SMILES | improvement of hyperglycemic conditions (blood glucose) (db/db mice [1]) | drop in blood glucose in treated animals compared to control groups (db/db mice [1]) | decrease in serum cholesterol concentrations (ob/ob mice [2]) | OGTT (oral glucose tolerance) (ob/ob mice [3]) | improvement of hyperglycemic conditions (ob/ob mice [3]) | body weight gain compared to controls (ob/ob mice [4]) | food intake compared to control groups (ob/ob mice [4]) | water intake compared to control groups (ob/ob mice [4]) | adipogenesis (lipid accumulation) compared to rosiglitazone (3T3-L1 fibroblasts) | basal glucose uptake compared to control cells [5] | inhibition of TNFα production (TNFα) | inhibition of IL-1β production (IL-1β) | inhibition of IL-6 production (IL-6) | cell viability [6] | body weight gain compared to controls (db/db mice [7]) | food intake compared to control groups (db/db mice [7]) | water intake compared to control groups (db/db mice [7])
COC(=O)C(Cc1ccc(Oc2ccc(CC3SC(=O)NC3=O)cc2)cc1)NC(=O)C(N)Cc1cnc[nH]1 (centres unmarked) [Compound A, 5-[4-(4-(2-(2-amino-3-imidazol-4-ylpropanamido)-2-methoxycarbonylethyl)phenoxy)benzyl]thiazolidin-2,4-dione dihydrochloride] | significant improvements of hyperglycemic conditions | 30% | 19% | significant improvement of OGTT | significant improvements of hyperglycemic conditions | significant reductions in body weight gain | improved significantly | improved significantly | did not show any adipogenesis | significant increase in basal glucose uptake | inhibit the production of three major pro-inflammatory cytokines in a dose dependent manner | inhibit the production of three major pro-inflammatory cytokines in a dose dependent manner | inhibit the production of three major pro-inflammatory cytokines in a dose dependent manner | No significant change in cell viability |  |  | 
COC(=O)C(Cc1ccc(Oc2ccc(C=C3SC(=O)NC3=O)cc2)cc1)NC(=O)C(N)Cc1c[nH]cn1.Cl.Cl (centres unmarked) [Compound B, 5-[4-(4-(2-(2-Amino-3-imidazol-4-ylpropanamido)-2-methoxycarbonylethyl)phenoxy)benzylidene]thiazolidin-2,4-dione dihydrochloride] | significant improvements of hyperglycemic conditions | 24% | 19% | significant improvement of OGTT | significant improvements of hyperglycemic conditions | significant reductions in body weight gain | improved significantly | improved significantly |  |  | inhibit the production of three major pro-inflammatory cytokines in a dose dependent manner | inhibit the production of three major pro-inflammatory cytokines in a dose dependent manner | inhibit the production of three major pro-inflammatory cytokines in a dose dependent manner | No significant change in cell viability | significant reductions in body weight gain | improved significantly | improved significantly
